Source: the supplement of paper PMC10307832

Assays:
Assay in all cases: relative viability (nuclei count vs DMSO), 5 days (fraction); higher = more cells survive
[1] = compound: C1CSC2=C(C(=O)N1)SC3=C2C=C(C=C3)O [kb NB 142-70]
Procedure, shortened: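 Lung cancer cell lines in 1536-well plates were exposed by pinning to five library-drug doses (not always all listed) √10 apart, following an overnight hold at 37 °C. MetaXpress counted Hoechst-stained nuclei from 4× images taken after 5 days without medium change. Viability is the median ratio of treated-well to vehicle-well nuclei across plates. Plates required control CV below 25% and at least one doubling.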

[2] = compound: C1CSC2=C(C(=O)N1)SC3=C2C=C(C=C3)O [kb NB 142-70] + Cc1nc(NC(=O)N2CCC[C@H]2C(N)=O)sc1-c1ccnc(C(C)(C)C(F)(F)F)c1 [Alpelisib] (partner 2 µM)
Procedure, shortened: (§1)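 Relative viability divides the nuclei count in treated wells by that in vehicle wells. Lung cancer cell lines were seeded in 1536-well plates, dosed by pin tool the next day, and fixed and stained after 5 days in one step with final 0.05% Triton X-100, 1% formaldehyde and 1 ug/ml Hoechst. Dosing was a single drug or a fixed anchor-drug dose plus five library-drug doses (not always all listed) in √10 steps, and values are medians of duplicate plates imaged at 4×.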

[3] = compound: NCC(=O)Nc1ccc(-n2nc(C(F)(F)F)cc2-c2ccc3c(ccc4ccccc43)c2)cc1 + COc1cc2c(Oc3ccc(NC(=O)C4(C(=O)Nc5ccc(F)cc5)CC4)cc3F)ccnc2cc1OCCCN1CCOCC1 [Foretinib] (partner 0.25 µM)
Procedure, shortened: as §1

[4] = compound: NCC(=O)Nc1ccc(-n2nc(C(F)(F)F)cc2-c2ccc3c(ccc4ccccc43)c2)cc1 + C[C@@H](Oc1cc(-c2cnn(C3CCNCC3)c2)cnc1N)c1c(Cl)ccc(F)c1Cl [Crizotinib] (partner 1 µM)
Procedure, shortened: as §1

| Cell Line | relative viability ([1]; 0.1 µM) | relative viability ([1]; 1 µM) | relative viability ([1]; 3.162 µM) | relative viability ([2]; first compound 0.1 µM) | relative viability ([2]; first compound 1 µM) | relative viability ([2]; first compound 3.162 µM) | relative viability ([3]; first compound 0.02 µM) | relative viability ([3]; first compound 0.06325 µM) | relative viability ([3]; first compound 0.2 µM) | relative viability ([3]; first compound 0.6325 µM) | relative viability ([3]; first compound 2 µM) | relative viability ([4]; first compound 0.02 µM) | relative viability ([4]; first compound 0.06325 µM) | relative viability ([4]; first compound 0.2 µM) | relative viability ([4]; first compound 0.6325 µM) | relative viability ([4]; first compound 2 µM) |
| --- | --- | --- | --- | --- | --- | --- | --- | --- | --- | --- | --- | --- | --- | --- | --- | --- |
| NCI-H1975 | 0.902 | 0.982 | 0.656 | 0.665 | 0.604 | 0.344 | 1.03 | 0.94 | 1.08 | 1 | 0.984 | 0.96 | 0.954 | 0.954 | 0.906 | 0.914 |
| NCI-H1993 | 1.03 | 0.857 | 0.716 | 0.761 | 0.654 | 0.555 | 0.861 | 0.819 | 0.814 | 0.796 | 0.835 | 0.939 | 0.987 | 0.822 | 1.03 | 0.902 |
| NCI-H2009 | 1.06 | 1.07 | 0.788 | 1.04 | 1.2 | 0.72 | 1.27 | 1.19 | 1.38 | 1.14 | 1.25 | 1.06 | 1.03 | 1.07 | 1.09 | 1.04 |
| NCI-H2023 | 1.07 | 0.946 | 0.642 | 0.619 | 0.602 | 0.531 | 1.01 | 0.905 | 0.947 | 0.731 | 0.859 | 0.737 | 0.751 | 0.619 | 0.703 | 0.702 |
| NCI-H2085 | 0.964 | 0.952 | 0.712 | 0.869 | 0.901 | 0.658 | 1.02 | 1.05 | 1.07 | 0.812 | 1.1 | 0.862 | 0.901 | 0.938 | 0.865 | 0.819 |
| NCI-H2087 | 1.04 | 1.29 | 0.951 | 1.16 | 1.22 | 0.858 | 0.981 | 0.992 | 1.23 | 1.11 | 1.15 | 0.779 | 0.866 | 0.889 | 0.906 | 0.885 |
| NCI-H2126 | 0.985 | 0.974 | 0.989 | 0.748 | 0.763 | 0.758 | 1.23 | 1.1 | 1.3 | 1.08 | 1.11 | 1 | 1 | 1.05 | 1.01 | 1.04 |
| NCI-H2170 | 0.965 | 1.02 | 0.825 | 0.76 | 0.852 | 0.561 | 0.995 | 0.975 | 1.04 | 0.985 | 1.02 | 1.24 | 1.22 | 1.1 | 1.22 | 1.22 |
| NCI-H2228 | 1.04 | 1.33 | 0.699 | 0.7 | 0.729 | 0.494 | 1.05 | 0.974 | 0.889 | 0.97 | 0.972 | 0.56 | 0.652 | 0.603 | 0.544 | 0.493 |
